# In BindingDB's records for doi:10.1021/cb700200w (Novartis, 2008):
# Biological target: T1, Aurora kinase A (Homo sapiens, UniProt O14965)
# T1 sequence (O14965 whole entry): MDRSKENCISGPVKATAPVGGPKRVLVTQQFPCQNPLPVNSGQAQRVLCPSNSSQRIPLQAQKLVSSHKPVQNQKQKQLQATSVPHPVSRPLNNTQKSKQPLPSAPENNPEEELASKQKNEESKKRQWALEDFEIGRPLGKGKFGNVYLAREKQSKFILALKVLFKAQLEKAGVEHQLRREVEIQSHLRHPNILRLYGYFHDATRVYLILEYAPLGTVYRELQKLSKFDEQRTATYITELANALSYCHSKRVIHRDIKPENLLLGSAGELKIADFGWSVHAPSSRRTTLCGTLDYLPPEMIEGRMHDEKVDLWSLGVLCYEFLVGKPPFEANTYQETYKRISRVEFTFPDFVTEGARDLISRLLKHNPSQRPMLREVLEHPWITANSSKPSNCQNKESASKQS
# Experiment: Aurora Kinase SPA Assay
# Procedure: The biochemical activity of compounds was determined by incubation with Aurora A and substrates in the presence ATP/[gamma-33P] ATP. After incubation, the reaction was stopped and the phosphorylated substrate was separated from nonincorporated radioactive ATP using SPA beads (Amersham Pharmacia Biotech), counted using TopCount (Packard) to measure substrate-incorporated phosphate.
IC50,"IC50 (pH 7, 22 °C)",SMILES
,1100 nM,"Fc1ccc(Nc2ncc(Cl)s2)cc1 [5-chloro-N-(4-fluorophenyl)-1,3-thiazol-2-amine]"
,5700 nM,"CCOC(=O)c1ccc(Nc2ncc(Br)s2)cc1 [ethyl 4-[(5-bromo-1,3-thiazol-2-yl)amino]benzoate]"
,2400 nM,"FC(F)(F)c1ccc(Nc2ncc(Br)s2)cc1 [5-bromo-N-[4-(trifluoromethyl)phenyl]-1,3-thiazol-2-amine]"
> 10000 nM,,"FC(F)(F)c1cc(Nc2ncc(Br)s2)cc(C(F)(F)F)c1 [N-[3,5-bis(trifluoromethyl)phenyl]-5-bromo-1,3-thiazol-2-amine]"
,1100 nM,"Brc1cnc(Nc2ccccc2)s1 [5-bromo-N-phenyl-1,3-thiazol-2-amine]"
2000 nM,,"Brc1cnc(Nc2ccccn2)s1 [5-bromo-N-(pyridin-2-yl)-1,3-thiazol-2-amine]"
5500 nM,,"O=C(Nc1ncc(Br)s1)c1ccccc1 [N-(5-bromo-1,3-thiazol-2-yl)benzamide]"
7800 nM,,"Brc1cnc(Nc2ccncc2)s1 [5-bromo-N-(pyridin-4-yl)-1,3-thiazol-2-amine]"
500 nM,,"CSc1cccc(Nc2ncc(Br)s2)c1 [5-bromo-N-[3-(methylsulfanyl)phenyl]-1,3-thiazol-2-amine]"
5000 nM,,"Brc1cnc(Nc2cccc3ccccc23)s1 [5-bromo-N-(naphthalen-1-yl)-1,3-thiazol-2-amine]"
,9200 nM,"O=C(Nc1ccc(Nc2ncc(Br)s2)cc1)c1ccccc1 [N-{4-[(5-bromo-1,3-thiazol-2-yl)amino]phenyl}benzamide]"
2500 nM,,N#Cc1cnc(Nc2ccccn2)s1 [ACS Chemical Biology 3180 Compound 63]
,900 nM,"Brc1cnc(Nc2ccc(Oc3ccncc3)cc2)s1 [5-bromo-N-[4-(pyridin-4-yloxy)phenyl]-1,3-thiazol-2-amine]"
,> 10000 nM,"Fc1ccc(Nc2nccs2)cc1 [N-(4-fluorophenyl)-1,3-thiazol-2-amine]"
2250 nM,,"CCOC(=O)c1cccc(Nc2ncc(Br)s2)c1 [ethyl 3-[(5-bromo-1,3-thiazol-2-yl)amino]benzoate]"
> 10000 nM,,"FC(F)(F)c1ccccc1Nc1ncc(Br)s1 [5-bromo-N-[2-(trifluoromethyl)phenyl]-1,3-thiazol-2-amine]"
> 10000 nM,,"CC(=O)Nc1ncc(Br)s1 [N-(5-bromo-1,3-thiazol-2-yl)acetamide]"
,360 nM,"CC(=O)Nc1ccc(Nc2ncc(Br)s2)cc1 [N-{4-[(5-bromo-1,3-thiazol-2-yl)amino]phenyl}acetamide]"

# More lines, now with the values behind:
SMILES,IC50,"IC50 (pH 7, 22 °C)"
"COCCNC(=O)c1cccc(Nc2ncc(Br)s2)c1 [3-[(5-bromo-1,3-thiazol-2-yl)amino]-N-(2-methoxyethyl)benzamide]",1220 nM,
"COc1ccccc1Nc1ncc(Br)s1 [5-bromo-N-(2-methoxyphenyl)-1,3-thiazol-2-amine]",2700 nM,
"N#Cc1cnc(Nc2ccc(CN3CCOCC3)cn2)s1 [2-{[5-(morpholin-4-ylmethyl)pyridin-2-yl]amino}-1,3-thiazole-5-carbonitrile]",1400 nM,
"O=C(NCCN1CCCC1)c1ccc(Nc2ncc(Br)s2)cc1 [4-[(5-bromo-1,3-thiazol-2-yl)amino]-N-[2-(pyrrolidin-1-yl)ethyl]benzamide]",5320 nM,
"Nc1ccc(Nc2ncc(Br)s2)cc1 [1-N-(5-bromo-1,3-thiazol-2-yl)benzene-1,4-diamine]",,600 nM
"Cc1cccc(Nc2ncc(Br)s2)c1 [5-bromo-N-(3-methylphenyl)-1,3-thiazol-2-amine]",1100 nM,
"CCN(CC)CCNC(=O)c1ccc(Nc2ncc(Br)s2)cc1 [4-[(5-bromo-1,3-thiazol-2-yl)amino]-N-[2-(diethylamino)ethyl]benzamide]",4520 nM,
"O=C(Nc1ccccc1)Nc1ncc(Br)s1 [3-(5-bromo-1,3-thiazol-2-yl)-1-phenylurea]",> 10000 nM,
"N#Cc1cnc(Nc2ccc(CN3CCN(CCO)CC3)cn2)s1 [2-[(5-{[4-(2-hydroxyethyl)piperazin-1-yl]methyl}pyridin-2-yl)amino]-1,3-thiazole-5-carbonitrile]",5400 nM,
"O=[N+]([O-])c1ccc(Nc2ncc(Br)s2)cc1 [5-bromo-N-(4-nitrophenyl)-1,3-thiazol-2-amine]",,13000 nM
"CN1CCN(Cc2ccc(Nc3ncc(C#N)s3)nc2)CC1 [2-({5-[(4-methylpiperazin-1-yl)methyl]pyridin-2-yl}amino)-1,3-thiazole-5-carbonitrile]",3800 nM,
"O=C(NCCN1CCOCC1)c1ccc(Nc2ncc(Br)s2)cc1 [4-[(5-bromo-1,3-thiazol-2-yl)amino]-N-[2-(morpholin-4-yl)ethyl]benzamide]",2300 nM,
"Fc1ccc(F)c(Nc2ncc(Br)s2)c1 [5-bromo-N-(2,5-difluorophenyl)-1,3-thiazol-2-amine]",> 10000 nM,
"CNC(=O)N1CCN(Cc2ccc(Nc3ncc(C#N)s3)nc2)CC1 [4-({6-[(5-cyano-1,3-thiazol-2-yl)amino]pyridin-3-yl}methyl)-N-methylpiperazine-1-carboxamide]",880 nM,
"COc1cccc(Nc2ncc(Br)s2)c1 [5-bromo-N-(3-methoxyphenyl)-1,3-thiazol-2-amine]",900 nM,
"Brc1cnc(Nc2ccc(I)cc2)s1 [5-bromo-N-(4-iodophenyl)-1,3-thiazol-2-amine]",,> 10000 nM

SMILES,IC50,"IC50 (pH 7, 22 °C)"
"Fc1ccccc1Nc1ncc(Br)s1 [5-bromo-N-(2-fluorophenyl)-1,3-thiazol-2-amine]",5500 nM,
"COc1ccc(Nc2ncc(Br)s2)cc1 [5-bromo-N-(4-methoxyphenyl)-1,3-thiazol-2-amine]",,1700 nM
"CN(c1ccc(F)cc1)c1ncc(Br)s1 [5-bromo-N-(4-fluorophenyl)-N-methyl-1,3-thiazol-2-amine]",,> 10000 nM
"Brc1cnc(NCCc2ccccc2)s1 [5-bromo-N-(2-phenylethyl)-1,3-thiazol-2-amine]",> 10000 nM,
"Clc1ccc(Nc2ncc(Br)s2)cc1Cl [5-bromo-N-(3,4-dichlorophenyl)-1,3-thiazol-2-amine]",> 10000 nM,
"O=C(NCCO)c1ccc(Nc2ncc(Br)s2)cc1 [4-[(5-bromo-1,3-thiazol-2-yl)amino]-N-(2-hydroxyethyl)benzamide]",,1480 nM
"Clc1ccc(Nc2ncc(Br)s2)cc1 [5-bromo-N-(4-chlorophenyl)-1,3-thiazol-2-amine]",,3000 nM
"COCC(C)NC(=O)c1ccc(Nc2ncc(Br)s2)cc1 (centres undefined) [4-[(5-bromo-1,3-thiazol-2-yl)amino]-N-(1-methoxypropan-2-yl)benzamide]",,330 nM
"Clc1cc(Cl)cc(Nc2ncc(Br)s2)c1 [5-bromo-N-(3,5-dichlorophenyl)-1,3-thiazol-2-amine]",> 10000 nM,
"Brc1ccc(Nc2ncc(Br)s2)cc1 [5-bromo-N-(4-bromophenyl)-1,3-thiazol-2-amine]",,2900 nM
"Cc1cc(C)cc(Nc2ncc(Br)s2)c1 [5-bromo-N-(3,5-dimethylphenyl)-1,3-thiazol-2-amine]",> 10000 nM,
"Fc1ccc(Nc2nc(Br)cs2)cc1 [4-bromo-N-(4-fluorophenyl)-1,3-thiazol-2-amine]",,> 10000 nM
"CN(C)CCNC(=O)c1ccc(Nc2ncc(Br)s2)cc1 [4-[(5-bromo-1,3-thiazol-2-yl)amino]-N-[2-(dimethylamino)ethyl]benzamide]",5250 nM,
"Oc1ccc(Nc2ncc(Br)s2)cc1 [4-[(5-bromo-1,3-thiazol-2-yl)amino]phenol]",,510 nM
"CNC(=O)c1cccc(Nc2ncc(Br)s2)c1 [3-[(5-bromo-1,3-thiazol-2-yl)amino]-N-methylbenzamide]",740 nM,
